The conditions of data set [1]: room temperature raised to 40° C., man; cited from earlier work.
For data set [2] the following is noted: DRI 2000, oral ingestion; cited from earlier work.
Data set [3] is described as follows: safety of TS treatment in the human subjects. It counts as in vivo. Particulars: human subjects of this study. As to the method: The hydrolyzed products of TS are tocopherol (vitamin E) and succinic acid, an endogenous metabolite produced during the oxidation of carbohydrates, amino acids and fat. The upper safety limit for vitamin E is set at 1000 mg or 1 gm by the most recent issue of DRI (Dietary Reference Intake) for vitamin C, vitamin E selenium and carotenoids. The DRI report was published in 2000 and one of the joint inventors of the present invention served on the committee from which the report was sponsored by the Institute of Medicine, US National Academy of Sciences (Chan et al. 2000). The upper dose limit claimed in the invention herein, is below or around the upper safety limit set at 1 gm by the Institute of Medicine for oral ingestion.

Data set [4] concerns colon cancer cell xenografts. Particulars: ip, 5 injections of 10 mg/day for 10 days; p < 0.01; cited from earlier work.
A further data set has as its system murine melanoma. Particulars: ip, 15 injections at 3 mg/mouse, cited from earlier work.
Data set [5] deals with chemical-induced forestomach cancer. The note with it: cited from earlier work.
For the next data set, the system named is colon cancer xenografts. The note with it: ip, 4 injections at 5 mg once every 3 days; cited from earlier work.
In data set [6] the test system is human breast cancer cells. The note with it: cited from earlier work.
The conditions of data set [7]: the Merck index; cited from earlier work.
In data set [8] the test system is esterase in the digestive juice. Particulars: human (Howritt et al. 1984, Chessman et al. 1995); cited from earlier work.
Data set [9] has as its system human prostate cancer cells. Particulars: cited from earlier work.
The subject of data set [10] is several lines of cancer cells in culture. Particulars: prior to the induction of apoptosis; cited from earlier work.
Setting [11] is: intragastric 16 times at 1.25 g/kg.
[12] abbreviates: intragastric 16 times at 2.5 g/kg.

Like-named read-outs stand apart in the source and are kept apart here.

Consider `O=C(O)c1ccccc1O` [salicylate], for which the “increase in dermal crossing” value in [1] is on record as 3 fold.

`Cc1c(C)c2c(c(C)c1O)CC[C@@](C)(CCC[C@H](C)CCC[C@H](C)CCCC(C)C)O2` [vitamin E, RRR-alpha-tocopherol]: the upper safety limit in data set [2] is 1000 mg.

As to tocopheryl succinate [TS], in data set [3], the “safety of treatment procedure” value is listed as “no concern regarding the safety”. Besides, the tumor volume result in [4] was “tumor volume reduced”; in the data set with murine melanoma (p < 0.01) it was “Treatment resulted in reduction of”. Further, in the data set on murine melanoma, the proliferation entry is on record as “Treatment resulted in reduction of”. Further, the “reduction in tumor incident” value in [5] (setting [11]) was 18%; in data set [5] (setting [12]) it was 23%. Besides, the “reduction in tumor volume” value in data set [5] (setting [11]) was 63%; in data set [5] (setting [12]), 81%; in [5] (ip, 8 injections at 20 mg/kg), “ip treatments resulted in 84%”; with colon cancer xenografts, 75% reduction in tumor volume. Besides, in data set [5] (ip, 8 injections at 20 mg/kg), the less tumor incident result is “reduction in tumor volume & 50%”. Besides, the angiogensis result in data set [6] (ip injection) is on record as “ip injection also reduce”. Also, the “expression of VEGF (vascular endothelial growth factor)” value in [6] (ip injection) was “angiogensis via the suppressing”. For the same compound, the “reduction in tumor weight” value in data set [6] (ip, 7 injections at 3 mg/day) is listed as “ip injection resulted in 63%”. In [6] (sc, at 150 mg/kg per day), the “effect on tumor with sc injections” value was “no effect with sc injections”. Further, the “solubility in vegetable oils” value in data set [7] was “not readily soluble”. In addition, the “fate after oral ingestion” value in data set [8] was “convert to tocopherol”. Moreover, the “expression of PSA (prostate specific antigen)” value in data set [9] is listed as “strongly suppresses”. In addition, the “expression of the androgen receptors” value in [9] was “inhibits”. Also, the cellular lysosomal disruption result in data set [10] was “major disruption”.
